Source: patent US9233989B2, “Sila analogs of oxazolidinone derivatives and synthesis thereof” (Council of Scientific & Industrial Research, priority 2011, dated 2016)
Converted amounts (≈) assume the structure as drawn.

What was measured:
[1] = system: S.aureus ATCC 13709 Smith; assay: MIC by microbroth dilution method; assay type: cell-based
S.aureus ATCC 29213 = assay: MIC by microbroth dilution method; assay type: cell-based
MRSA ATCC 43300 = assay: MIC by microbroth dilution method; assay type: cell-based, S. aureus
MRSA 562 = assay: MIC by microbroth dilution method; assay type: cell-based, S. aureus
S.aureus2 (PVL + ve) = assay type: cell-based, S. aureus
[2] = system: S.aureus ATCC Newman 25904; assay: MIC by microbroth dilution method; assay type: cell-based
MRSA ATCC BAA 39 = assay: MIC by microbroth dilution method; assay type: cell-based, S. aureus
S.aureus DB00026 = assay: MIC by microbroth dilution method; assay type: cell-based
MRSA 252 BAA 1720 = assay: MIC by microbroth dilution method; assay type: cell-based, S. aureus
S.epidermidis ATCC 14990 = assay: MIC by microbroth dilution method; assay type: cell-based
MRSE ATCC 35984 = assay: MIC by microbroth dilution method; assay type: cell-based, S. epidermidis
E.faecalis ATCC 29212 = assay: MIC by microbroth dilution method; assay type: cell-based
[3] = system: E.faecalis ATCC 51299(VRE&HLAR); assay: MIC by microbroth dilution method; assay type: cell-based
E.faecalis ATCC 19433 = assay: MIC by microbroth dilution method; assay type: cell-based
E.faecium ATCC 19434 = assay: MIC by microbroth dilution method; assay type: cell-based
E.faecium ATCC 49224 = assay: MIC by microbroth dilution method; assay type: cell-based
E.faecium ATCC 35667 = assay: MIC by microbroth dilution method; assay type: cell-based
E.coli 7632 = assay: MIC by microbroth dilution method; assay type: cell-based
[4] = system: S.aureus ATCC 49775 PVL + ve; assay type: cell-based
[5] = system: S.aureus ATCC 700699 Mu50; assay: MIC by microbroth dilution method; assay type: cell-based
MRSA 0-2657 = assay: MIC by microbroth dilution method; assay type: cell-based, S. aureus
MRSA DB 00026 = assay: MIC by microbroth dilution method; assay type: cell-based, S. aureus
[6] = system: S.aureus 13709 LNZ mutant; assay type: cell-based
S.epidermidis ATCC 12228 = assay: MIC by microbroth dilution method; assay type: cell-based
MRSE ATCC 35983 = assay: MIC by microbroth dilution method; assay type: cell-based, S. epidermidis
S.epidermis St 358 = assay: MIC by microbroth dilution method; assay type: cell-based, S. epidermidis
E.faecalis SP 346 VRE = assay: MIC by microbroth dilution method; assay type: cell-based
E.faecium 6A VRE = assay: MIC by microbroth dilution method; assay type: cell-based
E.faecium 134 VRE = assay: MIC by microbroth dilution method; assay type: cell-based
E.faecium 06076 VRE = assay: MIC by microbroth dilution method; assay type: cell-based
E.faecium ATCC 3567 = assay: MIC by microbroth dilution method; assay type: cell-based
[7] = system: Mycobacterium tuberculosis H37Rv; assay: Anti-TB activity, colorimetric resazurin microtiter assay; assay type: cell-based; settings: Mycobacterium tuberculosis, H37RV, read-out: MIC, Minimum Inhibitory Concentration (90%)

SMILES	MIC [1] [µg/mL]	MIC (S.aureus ATCC 29213) [µg/mL]	MIC (MRSA ATCC 43300) [µg/mL]	MIC (MRSA 562) [µg/mL]	MIC (S.aureus2 (PVL + ve)) [µg/mL]	MIC [2] [µg/mL]	MIC (MRSA ATCC BAA 39) [µg/mL]	MIC (S.aureus DB00026) [µg/mL]	MIC (MRSA 252 BAA 1720) [µg/mL]	MIC (S.epidermidis ATCC 14990) [µg/mL]	MIC (MRSE ATCC 35984) [µg/mL]	MIC (E.faecalis ATCC 29212) [µg/mL]	MIC [3] [µg/mL]	MIC (E.faecalis ATCC 19433) [µg/mL]	MIC (E.faecium ATCC 19434) [µg/mL]	MIC (E.faecium ATCC 49224) [µg/mL]	MIC (E.faecium ATCC 35667) [µg/mL]	MIC (E.coli 7632) [µg/mL]	MIC [4] [µg/mL]	MIC [5] [µg/mL]	other results
C[Si]1(C)CCN(c2c(F)cc(N3C[C@H](CN)OC3=O)cc2F)CC1 [NDS-10054, (S)-5-(aminomethyl)-3-(4-(4,4-dimethyl-1,4-azasilinan-1-yl)-3,5-difluorophenyl)oxazolidin-2-one]	16 (≈ 45 µM)	16 (≈ 45 µM)	16 (≈ 45 µM)	16 (≈ 45 µM)	16 (≈ 45 µM)	16 (≈ 45 µM)	16 (≈ 45 µM)	16 (≈ 45 µM)	16 (≈ 45 µM)	16 (≈ 45 µM)	16 (≈ 45 µM)	16 (≈ 45 µM)	16 (≈ 45 µM)	16 (≈ 45 µM)	16 (≈ 45 µM)	16 (≈ 45 µM)	8 (≈ 22.5 µM)	> 32	16 (≈ 45 µM)	16 (≈ 45 µM)	MIC (MRSA 0-2657): 16 µg/mL (≈ 45 µM); MIC (MRSA DB 00026): 16 µg/mL (≈ 45 µM); MIC [6]: 32 µg/mL (≈ 90 µM); MIC (S.epidermidis ATCC 12228): 32 µg/mL (≈ 90 µM); MIC (MRSE ATCC 35983): 32 µg/mL (≈ 90 µM); MIC (S.epidermis St 358): 16 µg/mL (≈ 45 µM); MIC (E.faecalis SP 346 VRE): 16 µg/mL (≈ 45 µM); MIC (E.faecium 6A VRE): 8 µg/mL (≈ 22.5 µM); MIC (E.faecium 134 VRE): 16 µg/mL (≈ 45 µM); MIC (E.faecium 06076 VRE): 16 µg/mL (≈ 45 µM); MIC (E.faecium ATCC 3567): 8 µg/mL (≈ 22.5 µM); MIC [7]: 25 µg/mL (≈ 70.3 µM)
CCC(=O)NC[C@H]1CN(c2cc(F)c(N3CC[Si](C)(C)CC3)c(F)c2)C(=O)O1 [NDS-10056, (S)—N-((3-(4-(4,4-dimethyl-1,4-azasilinan-1-yl)-3,5-difluorophenyl)-2-oxooxazolidin-5-yl)methyl)propionamide]	> 32	> 32	16 (≈ 38.9 µM)	8 (≈ 19.4 µM)	8 (≈ 19.4 µM)	16 (≈ 38.9 µM)	32 (≈ 77.8 µM)	> 32	32 (≈ 77.8 µM)	16 (≈ 38.9 µM)	32 (≈ 77.8 µM)	32 (≈ 77.8 µM)	8 (≈ 19.4 µM)	32 (≈ 77.8 µM)	32 (≈ 77.8 µM)	32 (≈ 77.8 µM)	32 (≈ 77.8 µM)	> 32	32 (≈ 77.8 µM)	16 (≈ 38.9 µM)	MIC (MRSA 0-2657): 16 µg/mL (≈ 38.9 µM); MIC (MRSA DB 00026): 32 µg/mL (≈ 77.8 µM); MIC [6]: > 32 µg/mL; MIC (S.epidermidis ATCC 12228): 8 µg/mL (≈ 19.4 µM); MIC (MRSE ATCC 35983): 32 µg/mL (≈ 77.8 µM); MIC (S.epidermis St 358): 32 µg/mL (≈ 77.8 µM); MIC (E.faecalis SP 346 VRE): 16 µg/mL (≈ 38.9 µM); MIC (E.faecium 6A VRE): 8 µg/mL (≈ 19.4 µM); MIC (E.faecium 134 VRE): 32 µg/mL (≈ 77.8 µM); MIC (E.faecium 06076 VRE): > 32 µg/mL; MIC (E.faecium ATCC 3567): 32 µg/mL (≈ 77.8 µM); MIC [7]: 50 µg/mL (≈ 121 µM)
C[Si]1(C)CCN(c2ccc(N3C[C@H](CN)OC3=O)cc2F)CC1 [NDS-10057, (S)-5-(aminomethyl)-3-(4-(4,4-dimethyl-1,4-azasilinan-1-yl)-3-fluorophenyl)oxazolidin-2-one]	> 32	> 32	> 32	> 32	> 32	> 32	> 32	> 32	> 32	> 32	32 (≈ 94.8 µM)	> 32	16 (≈ 47.4 µM)	32 (≈ 94.8 µM)	32 (≈ 94.8 µM)	32 (≈ 94.8 µM)	32 (≈ 94.8 µM)	32 (≈ 94.8 µM)	> 32	> 32	MIC (MRSA 0-2657): > 32 µg/mL; MIC (MRSA DB 00026): > 32 µg/mL; MIC [6]: > 32 µg/mL; MIC (S.epidermidis ATCC 12228): > 32 µg/mL; MIC (MRSE ATCC 35983): > 32 µg/mL; MIC (S.epidermis St 358): > 32 µg/mL; MIC (E.faecalis SP 346 VRE): > 32 µg/mL; MIC (E.faecium 6A VRE): > 32 µg/mL; MIC (E.faecium 134 VRE): 32 µg/mL (≈ 94.8 µM); MIC (E.faecium 06076 VRE): > 32 µg/mL; MIC (E.faecium ATCC 3567): > 32 µg/mL; MIC [7]: 25 µg/mL (≈ 74.1 µM)
